Source: article PMC3681751, “Identification of a Novel Antimicrobial Peptide from Human Hepatitis B Virus Core Protein Arginine-Rich Domain (ARD)” (PLoS Pathogens, 2013)
Where two headings read alike, the source gives them in different places. Residues, ends and D or L forms follow the SMILES beside them.

Assays:
[1] = test system: K. pneumonia (ATCC 13884); assay type: cell-based, Klebsiella pneumoniae
E. coli (ATCC 25922) = assay type: cell-based, Escherichia coli
Procedure: (§1) The antimicrobial activities of HBc ARD peptides were tested using a number of bacterial strains from ATCC, including Pseudomonas aeruginosa Migula strain (ATCC 27853, ampicillin-resistant), Pseudomonas aeruginosa Migula strain (ATCC 9027, ampicillin-resistant), Klebsiella pneumoniae strain (ATCC 17593), Escherichia coli strain (ATCC 25922), Staphylococcus aureus subsp. strain (ATCC 25923, methicillin-resistant), Staphylococcus aureus subsp. strain (ATCC 29213, methicillin-resistant), Staphylococcus aureus subsp. strain (ATCC 19636, methicillinresistant), and Candida albicans strain (ATCC 10231).
(§2) All peptides were purchased from Yao-Hong Biotechnology Inc. (Taipei, Taiwan). Vendors provided data of peptide characterizations, including HPLC and Mass (data not shown). Antimicrobial activity was determined as described with some modifications as detailed below. Bacteria were grown overnight in Mueller–Hinton broth (Difco) at 37°C, and during the mid-logarithmic phase, bacteria were diluted to 10^6 CFU (colony formation unit)/ml in phosphate buffer (10 mM sodium phosphate and 50 mM sodium chloride, pH 7.2). Peptides were serially diluted in the same buffer. Fifty microliter (µl) of bacteria was mixed with fifty µl of peptides at varying concentrations followed by incubation at 37°C for 3 hours without shaking. At the end of incubation, bacteria were placed on Mueller-Hinton broth agar plates, and allowed growth at 37°C overnight for measurement of minimal bactericidal concentration (MBC). […] All peptides were tested in triplicate.

[2] = test system: P. aeruginosa (ATCC 9027); assay type: cell-based, Pseudomonas aeruginosa; conditions: for MBC against P. aeruginosa: summary over the P. aeruginosa strains of Table 1 (ATCC 9027, ATCC 27853)
Procedure: as §1, §2

[3] = test system: P. aeruginosa (ATCC 27853); assay type: cell-based, Pseudomonas aeruginosa
Procedure: as §1, §2

[4] = test system: tested bacteria and fungi; assay type: cell-based; conditions: summary of Table 1
Procedure: as §1, §2

S. aureus (ATCC 25923) = assay type: cell-based, Staphylococcus aureus
Procedure: as §1, §2

S. aureus (ATCC 29213) = assay type: cell-based, Staphylococcus aureus
Procedure: as §1, §2

S. aureus (ATCC 19636) = assay type: cell-based, Staphylococcus aureus
Procedure: as §1, §2

[5] = 3 h at 37°C in phosphate buffer pH 7.2, triplicate
[6] = ampicillin-resistant strain, 3 h at 37°C in phosphate buffer pH 7.2, triplicate
[7] = methicillin-resistant strain, 3 h at 37°C in phosphate buffer pH 7.2, triplicate

Molecule	Antimicrobial activity, MBC [1, 5] [µg/mL]	Antimicrobial activity, MBC ([1]; ATCC 13884, 3 h, pH 7.2) [µM]	Antimicrobial activity, MBC (E. coli (ATCC 25922); [5]) [µg/mL]	Antimicrobial activity, MBC ([2]; ATCC 9027, 3 h, pH 7.2) [µM]	MBC against P. aeruginosa [2]	Antimicrobial activity, MBC ([3]; ATCC 27853, 3 h, pH 7.2) [µM]	Antimicrobial activity, MBC [3, 6] [µg/mL]	Antimicrobial activity, MBC [2, 6] [µg/mL]	Activity against all of the tested bacteria and fungi [4]	Antimicrobial activity, MBC (E. coli (ATCC 25922); ATCC 25922, 3 h, pH 7.2) [µM]	Antimicrobial activity, MBC (S. aureus (ATCC 25923); ATCC 25923, 3 h, pH 7.2) [µM]	Antimicrobial activity, MBC (S. aureus (ATCC 25923); [7]) [µg/mL]	Antimicrobial activity, MBC (S. aureus (ATCC 29213); ATCC 29213, 3 h, pH 7.2) [µM]	Antimicrobial activity, MBC (S. aureus (ATCC 29213); [7]) [µg/mL]	Antimicrobial activity, MBC (S. aureus (ATCC 19636); ATCC 19636, 3 h, pH 7.2) [µM]	Antimicrobial activity, MBC (S. aureus (ATCC 19636); [7]) [µg/mL]	MBC against S. aureus (S. aureus (ATCC 19636); text summary over the S. aureus strains of Table 1 (ATCC 19636, 25923, 29213))
C[C@@H](O)[C@H](NC(=O)[C@H](CCCNC(=N)N)NC(=O)[C@H](CCCNC(=N)N)NC(=O)[C@@H](N)CCCNC(=N)N)C(=O)N1CCC[C@H]1C(=O)N[C@@H](CO)C(=O)N1CCC[C@H]1C(=O)N[C@@H](CCCNC(=N)N)C(=O)N[C@@H](CCCNC(=N)N)C(=O)N[C@@H](CCCNC(=N)N)C(=O)N[C@@H](CCCNC(=N)N)C(=O)N[C@@H](CO)C(=O)N[C@@H](CCC(N)=O)C(=O)N[C@@H](CO)C(=O)N1CCC[C@H]1C(=O)N[C@@H](CCCNC(=N)N)C(=O)N[C@@H](CCCNC(=N)N)C(=O)N[C@@H](CCCNC(=N)N)C(=O)N[C@@H](CCCNC(=N)N)C(=O)O [HBc157-175] (H-RRRTPSPRRRRSQSPRRRR-OH; N-terminus and C-terminus assumed)	> 80.58	> 32	> 80.58	2	strong activity	> 32	> 80.58	–	–	–	–	–	–	–	–	–	–
CC(C)[C@H](NC(=O)[C@@H](NC(=O)[C@@H](N)[C@@H](C)O)C(C)C)C(=O)N[C@@H](CCCNC(=N)N)C(=O)N[C@@H](CCCNC(=N)N)C(=O)N[C@@H](CCCNC(=N)N)C(=O)NCC(=O)N[C@@H](CCCNC(=N)N)C(=O)N[C@@H](CO)C(=O)N1CCC[C@H]1C(=O)N[C@@H](CCCNC(=N)N)C(=O)N[C@@H](CCCNC(=N)N)C(=O)N[C@@H](CCCNC(=N)N)C(=O)N[C@H](C(=O)N1CCC[C@H]1C(=O)N[C@@H](CO)C(=O)N1CCC[C@H]1C(=O)N[C@@H](CCCNC(=N)N)C(=O)N[C@@H](CCCNC(=N)N)C(=O)N[C@@H](CCCNC(=N)N)C(=O)N[C@@H](CCCNC(=N)N)C(=O)O)[C@@H](C)O [HBc147-167] (H-TVVRRRGRSPRRRTPSPRRRR-OH; N-terminus and C-terminus assumed)	21.3	–	> 85	> 32	–	> 32	> 85	> 85	–	–	–	–	–	–	–	–	–
C[C@@H](O)[C@H](NC(=O)[C@H](CCCNC(=N)N)NC(=O)[C@H](CCCNC(=N)N)NC(=O)[C@H](CCCNC(=N)N)NC(=O)[C@@H]1CCCN1C(=O)[C@H](CO)NC(=O)[C@H](CCCNC(=N)N)NC(=O)CN)C(=O)N1CCC[C@H]1C(=O)N[C@@H](CO)C(=O)N1CCC[C@H]1C(=O)N[C@@H](CCCNC(=N)N)C(=O)N[C@@H](CCCNC(=N)N)C(=O)N[C@@H](CCCNC(=N)N)C(=O)N[C@@H](CCCNC(=N)N)C(=O)N[C@@H](CO)C(=O)N[C@@H](CCC(N)=O)C(=O)N[C@@H](CO)C(=O)N1CCC[C@H]1C(=O)N[C@@H](CCCNC(=N)N)C(=O)N[C@@H](CCCNC(=N)N)C(=O)N[C@@H](CCCNC(=N)N)C(=O)N[C@@H](CCCNC(=N)N)C(=O)O [HBc153-175] (H-GRSPRRRTPSPRRRRSQSPRRRR-OH; N-terminus and C-terminus assumed)	93.28	> 32	46.64	2	strong activity	2	5.8	5.8	–	–	–	–	–	–	–	–	–
C[C@@H](O)[C@H](NC(=O)[C@H](CCCNC(=N)N)NC(=O)[C@H](CCCNC(=N)N)NC(=O)[C@H](CCCNC(=N)N)NC(=O)[C@@H]1CCCN1C(=O)[C@@H](N)CO)C(=O)N1CCC[C@H]1C(=O)N[C@@H](CO)C(=O)N1CCC[C@H]1C(=O)N[C@@H](CCCNC(=N)N)C(=O)N[C@@H](CCCNC(=N)N)C(=O)N[C@@H](CCCNC(=N)N)C(=O)N[C@@H](CCCNC(=N)N)C(=O)N[C@@H](CO)C(=O)N[C@@H](CCC(N)=O)C(=O)N[C@@H](CO)C(=O)N1CCC[C@H]1C(=O)N[C@@H](CCCNC(=N)N)C(=O)N[C@@H](CCCNC(=N)N)C(=O)N[C@@H](CCCNC(=N)N)C(=O)N[C@@H](CCCNC(=N)N)C(=O)O [HBc155-175] (H-SPRRRTPSPRRRRSQSPRRRR-OH; N-terminus and C-terminus assumed)	> 86.46	> 32	> 86.46	2	strong activity	16	43.23	5.4	–	–	–	–	–	–	–	–	–
HBc147-159: HBc ARD peptide ARD I–II (TVVRRRGRSPRRR; UniProt P03147 147-159, looked up, fragment)	–	–	–	–	–	–	–	–	no activity	–	–	–	–	–	–	–	–
HBc162-175: HBc ARD peptide ARD III–IV (SPRRRRSQSPRRRR; UniProt P03147 162-175, looked up, fragment)	–	–	–	–	–	–	–	–	no activity	–	–	–	–	–	–	–	–
CC(C)[C@H](NC(=O)[C@@H](NC(=O)[C@@H](N)[C@@H](C)O)C(C)C)C(=O)N[C@@H](CCCNC(=N)N)C(=O)N[C@@H](CCCNC(=N)N)C(=O)N[C@@H](CCCNC(=N)N)C(=O)NCC(=O)N[C@@H](CCCNC(=N)N)C(=O)N[C@@H](CO)C(=O)N1CCC[C@H]1C(=O)N[C@@H](CCCNC(=N)N)C(=O)N[C@@H](CCCNC(=N)N)C(=O)N[C@@H](CCCNC(=N)N)C(=O)N[C@H](C(=O)N1CCC[C@H]1C(=O)N[C@@H](CO)C(=O)N1CCC[C@H]1C(=O)N[C@@H](CCCNC(=N)N)C(=O)N[C@@H](CCCNC(=N)N)C(=O)N[C@@H](CCCNC(=N)N)C(=O)N[C@@H](CCCNC(=N)N)C(=O)N[C@@H](CO)C(=O)N[C@@H](CCC(N)=O)C(=O)N[C@@H](CO)C(=O)N1CCC[C@H]1C(=O)N[C@@H](CCCNC(=N)N)C(=O)N[C@@H](CCCNC(=N)N)C(=O)N[C@@H](CCCNC(=N)N)C(=O)N[C@@H](CCCNC(=N)N)C(=O)O)[C@@H](C)O [HBc147-175] (H-TVVRRRGRSPRRRTPSPRRRRSQSPRRRR-OH; N-terminus and C-terminus assumed)	3.68	1	3.68	0.5	–	1	3.68	1.84	–	1	> 32	> 117.86	> 32	> 117.86	> 32	> 117.86	lost the activity
C[C@@H](O)[C@H](NC(=O)[C@H](CCCNC(=N)N)NC(=O)[C@H](CCCNC(=N)N)NC(=O)[C@@H](N)CCCNC(=N)N)C(=O)N1CCC[C@H]1C(=O)N[C@@H](CO)C(=O)N1CCC[C@H]1C(=O)N[C@@H](CCCNC(=N)N)C(=O)N[C@@H](CCCNC(=N)N)C(=O)N[C@@H](CCCNC(=N)N)C(=O)N[C@@H](CCCNC(=N)N)C(=O)N[C@@H](CO)C(=O)N[C@@H](CCC(N)=O)C(=O)N[C@@H](CO)C(=O)N1CCC[C@H]1C(=O)N[C@@H](CCCNC(=N)N)C(=O)N[C@@H](CCCNC(=N)N)C(=O)N[C@@H](CCCNC(=N)N)C(=O)N[C@@H](CCCNC(=N)N)C(=O)N[C@@H](CO)C(=O)O [HBc157-176] (H-RRRTPSPRRRRSQSPRRRRS-OH; N-terminus and C-terminus assumed)	> 83.36	> 32	> 83.36	2	strong activity	2	5.2	5.2	–	–	–	–	–	–	–	–	–
